According to patent US4284769A, “Preparation of triazinyl nitriles” (priority 1975, dated 1981):

How the values were obtained:
[1] = Polymerization constant Kp of radical initiators in styrene (dilatometer); conditions: initiator 0.05% by weight for poorly soluble ones, normally 0.2%
Experimental: (§1) In these examples the reactivities are determined of the radical initiators and polymerization initiators according to the invention and some known radical initiators. The reactivity is indicated with the polymerization constant Kp. The latter is very much dependent on the temperature and occurs in the formula Rp=Kp (M) (I)^1/2 where Rp is the polymerization speed, (M) the concentration of the monomer and (I) the concentration of the radical initiator (see "Die Makromolekulare Chemie" 157 (1972), p.279 ff). In all determinations 50 ml. of the monomer were mixed with the radial initiators listed in the following Table and transferred to a dilatometer. The dilatometer was cooled to -80° C., filled with nitrogen, followed by applying vacuum to it; the last two treatments were repeated three times. Then the dilatometer was placed in a thermostated bath which had been set to the polymerization temperature mentioned in the table below. The concentration values were determined in accordance with the standard dilatometric technique (see "Angewandte Chemie" 59 (1947), p90). From the values obtained the conversion and the Kp-values were successively determined. The Table below gives the values obtained for the compounds are prepared in the Examples I through VII. For comparison also the Kp-values of some known radical initiators, namely, α,α'-bis(methoxycarbo)α,α'-bis(p-methylphenyl)succinonitrile(dl) (IX), dilauroyl peroxide (X), di-t-butyl perpivalate (XI) and tert. butyl peroxypivalate (XII) are listed in the Table.
(§2) Because of the poor solubility of some of the radical initiators prepared in the preceding examples, the determination of the Kp-value was started from 0.05% by weight, whereas normally 0.2% by weight is included in the monomer to be polymerized. The Kp-values of other radical initiators in styrene are listed in the Tables 2 and 3 on page 283 of the aforementioned article in "Die Makromolekulare Chemie".

[2] = Polymerization constant Kp of radical initiators in methylmethacrylate (dilatometer); conditions: initiator 0.05% by weight for poorly soluble ones, normally 0.2%
Experimental: as §1, §2

Row | Structure (SMILES) | Kp-value × 10^4 ([1]; temperature 70 °C) | Kp-value × 10^4 ([1]; temperature 80 °C) | Kp-value × 10^4 ([2]; temperature 50 °C) | Kp-value × 10^4 ([2]; temperature 60 °C) | Kp-value × 10^4 ([1]; temperature 90 °C)
1 | COC(=O)[C@](C#N)(c1ccc(C)cc1)[C@](C#N)(C(=O)OC)c1ccc(C)cc1 (relative stereo) [IX, α,α'-bis(methoxycarbo)α,α'-bis(p-methylphenyl)succinonitrile(dl), reference compound] | 1.3 | 3.4 | – | – | –
2 | CSc1nc(SC)nc(C(C#N)(c2ccc(C)cc2)C(C#N)(c2ccc(C)cc2)c2nc(SC)nc(SC)n2)n1 (stereo not drawn) [Example III, α,α'-bis(p-methylphenyl)α,α'-bis(2,4-dimethylthio-1,3,5-triazine)succinonitrile] | – | – | 2.85 | 5.92 | –
3 | COc1ccc(C(C#N)(c2nc(OC)nc(OC)n2)C(C#N)(c2ccc(OC)cc2)c2nc(OC)nc(OC)n2)cc1 (stereo not drawn) [Example IV, α,α'-bis(p-methoxyphenyl)α,α'-bis(2,4-dimethoxy-1,3,5-triazine)succinonitrile] | – | – | 1.1 | 2.7 | –
4 | CCCCCCCCCCCCCCCCCCOc1nc(OCCCCCCCCCCCCCCCCCC)nc(C(C#N)(c2ccc(C)cc2)C(C#N)(c2ccc(C)cc2)c2nc(OCCCCCCCCCCCCCCCCCC)nc(OCCCCCCCCCCCCCCCCCC)n2)n1 (stereo not drawn) [Example V, α,α'-bis(p-tolyl)α,α'-bis(2,4-distearoxy-1,3,5-triazine)succinonitrile] | 3.05 | 7.86 | 2.32 | 4.48 | –
5 | COc1nc(OC)nc(C(C#N)(c2ccc(C)cc2)C(C#N)(c2ccc(C)cc2)c2nc(OC)nc(OC)n2)n1 (stereo not shown) [I + II] | – | – | 3.85 | 7.5 | –
6 | Cc1ccc(C(C#N)(c2nc(N3CCCCC3)nc(N3CCCCC3)n2)C(C#N)(c2ccc(C)cc2)c2nc(N3CCCCC3)nc(N3CCCCC3)n2)cc1 (stereo not drawn) [VI, α,α'-bis(p-methylphenyl) α,α'-bis (2,4-dipiperidino-1,3,5-triazine)succinonitrile] | – | 1.60 | no polymerization | no polymerization | 3.56
7 | COc1nc(OC)nc(C(C#N)(c2ccc(Cl)cc2)C(C#N)(c2ccc(Cl)cc2)c2nc(OC)nc(OC)n2)n1 (stereo not drawn) [VII, α,α'-bis(p-chorophenyl)α,α'-bis(2,4-dimethoxy-1,3,5-triazine)succinonitrile] | 6.10 | 5.70 | 2.10 | 5.52 | –
8 | CCCCCCCCCCCC(=O)OOC(=O)CCCCCCCCCCC [X, dilauroyl peroxide, reference compound] | 2.4 | 5.8 | – | – | –
9 | CC(C)(C)OOC(=O)C(C)(C)C [XI, di-t-butyl perpivalate, reference compound] | 4.2 | 10.1 | – | – | –
10 | CC(C)(C)OOC(=O)C(C)(C)C [XII, tert. butyl peroxypivalate, reference compound] | – | – | 3.0 | – | –
